In patent US20240398767A1, “INHIBITORS OF THE MTDH-SND1 PROTEIN COMPLEX FOR CANCER THERAPY” (The Trustees of Princeton University, priority 2021, published 2024):

Tests used:
[1] = Toxicity in 4TO7 metastasis-bearing mice (ALT/AST, blood cell counts, small intestine); type: in vivo
Method: FIG. 7E, Serum from mice in FIG. 7A were collected for ALT and AST activity measurement following the standard protocol (Sigma). Data represent mean±SEM. AST, n=8 replicates from 6 mice; ALT, n=9 replicates from 6 mice. Significance determined by one-way ANOVA analysis with Sidak's test for multiple comparisons.
FIG. 7F, Blood samples were drawn from the heart of mice in FIG. 7A, and blood cell counts were performed with the Sysemx XN-3000 Hematology System (Sysmex America, Inc.). Data represent mean±SEM. n=6 mice per group. Significance determined by one-way ANOVA analysis with Sidak's test for multiple comparisons.
FIG. 7G, Small intestine samples were obtained from mice in FIG. 7A. H&E and Alcian blue staining was performed on processed, sliced samples. Scale bar: 200 μm.
FIG. 7H, Quantification of Alcian blue staining results from FIG. 7G. Data represent mean±SEM. n=12 fields from 6 mice in each group. Significance determined by one-way ANOVA analysis with Sidak's test for multiple comparisons.

[2] = system: PyMT tumor cells; assay: Experimental lung metastasis, tail vein injection of PyMT tumor cells; type: in vivo, FVB mice; settings: treatment from 3 days after injection, five weeks
Method: FIG. 5L, 2 k PyMT tumor cells were injected into FVB females via tail-vein. 3 days after injection, the mice were treated with vehicle or C26-A6.
FIG. 5M, 2 k PyMT tumor cells were injected into FVB females via tail-vein. 3 days after injection, the mice were treated with vehicle or C26-A6. 5 weeks later, lung metastatic nodules were counted. n=6 mice per group. Data represent mean±SEM.
To exclude the possibility that the lung metastasis reduction upon C26-A6 treatment was due to the smaller primary tumor, tail vein injection of PyMT tumor cells was performed to form experimental lung metastasis in FVB mice. Three days later, mice were divided randomly into two groups and treated with vehicle or C26-A6 respectively (FIG. 5L).

[3] = system: PyMT tumorspheres; assay: PyMT tumorsphere viability, apoptosis, cell cycle and western blot; type: cell-based, mouse
Method: FIG. 14A, Spheres were treated with vehicle or indicated concentrations of C26-A6 for 1 week. The viability of the spheres was then quantified by MTT assay.
For FIGS. 14B-14I, similar sphere assay as in FIG. 14A was performed. n≥3 independent experiments. Data represent mean±SEM and significance determined by two tailed Student's t-test for all panels in FIGS. 14B-14I.
FIG. 15C, Sphere assay was performed and treated with vehicle and C26-A6 as in FIG. 14A. The spheres were collected for western blot to analyze the expression of the candidates.
To obtain insights into the molecular mechanism underlying C26-A6 treatment-induced reduction of cell viability and increase of apoptosis, in vitro sphere assays were employed. […] To further explore the downstream effectors of tumor-suppressive response to C26-A6, GSEA analysis of PyMT tumor with or without C26-A6 treatment was performed.

[4] = biological target: T1, MTDH-SND1 interaction in SCP28 tumors (Homo sapiens, UniProt Q7KZF4); assay: In vivo split-luciferase bioluminescence in SCP28 tumors; set-up: species or system NSG female mice; settings: 0.25 mg or 0.5 mg via tail-vein injection, 30 min after treatment
T1 construct: SND1-NLuc and CLuc-MTDH flanked by BamH 1 and Not 1 restriction sites were inserted into pcDNA3.1 and pRVPTO (retrovrial) vectors; expressed in transfected cells; host or cells: SCP28 cells stably transduced with pRVPTO retroviral vectors (packaged in H29 cells); in culture (A5) or as orthotopic tumours in NSG mice (A11)
T1 sequence (Q7KZF4 with tags, fused parts or gaps): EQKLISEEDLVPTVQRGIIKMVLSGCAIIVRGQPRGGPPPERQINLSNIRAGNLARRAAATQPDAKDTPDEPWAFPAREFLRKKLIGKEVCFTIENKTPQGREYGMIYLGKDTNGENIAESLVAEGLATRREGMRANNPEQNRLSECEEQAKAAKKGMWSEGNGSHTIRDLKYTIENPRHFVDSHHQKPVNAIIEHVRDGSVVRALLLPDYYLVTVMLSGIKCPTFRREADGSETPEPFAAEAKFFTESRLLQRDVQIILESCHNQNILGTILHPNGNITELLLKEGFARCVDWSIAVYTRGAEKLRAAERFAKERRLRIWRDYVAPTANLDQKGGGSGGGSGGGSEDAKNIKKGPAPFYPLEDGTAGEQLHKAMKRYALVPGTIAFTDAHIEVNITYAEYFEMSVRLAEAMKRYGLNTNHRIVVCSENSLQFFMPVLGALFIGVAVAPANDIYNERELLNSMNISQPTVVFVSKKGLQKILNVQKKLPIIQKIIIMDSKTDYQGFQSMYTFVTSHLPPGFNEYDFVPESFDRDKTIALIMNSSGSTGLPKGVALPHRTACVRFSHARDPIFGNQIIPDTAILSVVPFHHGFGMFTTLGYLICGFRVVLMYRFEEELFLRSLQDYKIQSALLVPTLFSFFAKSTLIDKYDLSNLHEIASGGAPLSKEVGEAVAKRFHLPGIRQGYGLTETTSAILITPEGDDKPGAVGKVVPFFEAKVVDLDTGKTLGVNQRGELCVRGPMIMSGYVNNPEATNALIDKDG
Method: FIG. 12A, NSG female mice were inoculated with 10 k of SCP28 cells that express split-luciferase components by MFP injection. Two weeks after injection, the mice were treated with 0.25 mg/mouse or 0.5 mg/mouse of C26-A6 via tail-vein injection. 30 min after the treatment, luciferase activity at primary tumors was measured.
FIG. 12B, Luciferase activity at primary tumors from mice in FIG. 12A. Data represent mean±SEM. n=3 mice. Significance determined by one-way ANOVA analysis with Dunnett's test for multiple comparisons.
To test the in vivo blocking effect of C26-A6 on MTDH-SND1 interaction, mice with SCP28 tumors that stably express split-luciferase components were treated with vehicle, 0.25 mg or 0.5 mg of C26-A6 via tail-vein injection followed by bioluminescence imaging.

[5] = system: PyMT tumors with MTDH KO or SND1 KD; assay: PyMT tumor models with MTDH KO or SND1 KD in FVB mice; type: in vivo, FVB female mice; settings: 6 weeks treatment
Method: FIG. 5G, 10 k of the cells of FIG. 5F were inoculated into FVB female mice and treated with or without C26-A6 after primary tumors reached to approximately 2 mm in diameter. 6 weeks after treatment, tumor size was determined. Vehicle, n=10 mice; C26-A6, n=10 mice.
FIG. 5H, 10 k of the cells of FIG. 5F were inoculated into FVB female mice and treated with or without C26-A6 after primary tumors reached to approximately 2 mm in diameter. 6 weeks after treatment, spontaneous lung metastasis was determined. The lung metastatic areas of the representative lungs were highlighted with red. Vehicle, n=10 mice; C26-A6, n=10 mice. Size bar, 5 mm.
FIG. 5J, 10 k of the cells of FIG. 5I were injected into FVB females and treated similarly as in FIGS. 5G, 5H. Tumor size was assessed. Vehicle, n=10 mice; C26-A6, n=10 mice.
FIG. 5K, 10 k of the cells of FIG. 5I were injected into FVB females and treated similarly as in FIGS. 5G, 5H. Lung metastasis was assessed. The lung metastatic areas of the representative lungs were highlighted with red. Vehicle, n=10 mice; C26-A6, n=10 mice. Size bar, 5 mm.
Next, to further validate that the anti-tumor effect of C26-A6 depends on its on-target effects by disrupting MTDH-SND1 complex, PyMT; UBC-Cre^ERT+/−;Mtdh^fl/fl tumor cells with Mtdh depletion or with endogenous Snd1 KD were employed for the similar assay as in FIG. 5-1a. […]

[6] = system: SCP28 tumors with MTDH or SND1 KD; assay: SCP28 tumor models with MTDH or SND1 KD; type: in vivo, NSG females
Method: FIG. 17A, Indicated cells were injected into NSG females orthotopically and followed by vehicle or C26-A6 treatment after 2 weeks. Tumor volumes were measured 8 weeks after injection. Vehicle, n=6 mice; C26-A6, n=6 mice.
FIG. 17B, Spontaneous lung metastasis of the mice in FIG. 17A were assessed by BLI (right). Size bar, 5 mm. Vehicle, n=5 lungs; C26-A6, n=6 lungs.
FIG. 17C, The SND1 and MTDH expression of the cells used in FIG. 17A was evaluated.
Next, to further validate that the anti-tumor effect of C26-A6 depends on its on-target effects by disrupting MTDH-SND1 complex, PyMT; UBC-Cre^ERT+/−;Mtdh^fl/fl tumor cells with Mtdh depletion or with endogenous Snd1 KD were employed for the similar assay as in FIG. 5-1a. […] Likewise, MTDH or SND1 KD abolished the C26-A6 treatment-induced primary tumor inhibition or metastasis reduction in SCP28 tumor models (Extended Data FIG. 10-1a-c).

COc1ccc(Cl)cc1S(=O)(=O)Nc1cccn2nc(C)nc12 [Analog C26-A6]
tolerability ([1]; 15 mg/kg 5 days per week): well tolerated
enhancement of chemotherapy toxicity ([1]; combined with paclitaxel): did not further enhance the chemotherapy toxicity
lung metastasis (metastatic nodules) [2]: significantly suppressed lung metastasis
Cdc20, Plk1, and c-Myc expression (western blot) [3]: down-regulated
cell cycle status ([3]; 200 μM): induced G2/M cell cycle arrest
survival (live cells, apoptosis) ([3]; 200 μM): significantly reduced survival
sphere viability (MTT assay), tumorspheres versus MECs ([3]; indicated concentrations, 1 week): more susceptible
MTDH-SND1 interaction in vivo (luciferase activity at primary tumors) [4]: blocks MTDH-SND1 interaction in vivo in a dose-dependent manner
tumor growth or metastasis [5]: did not further inhibit tumor growth or metastasis
C26-A6 treatment-induced primary tumor inhibition or metastasis reduction [6]: abolished
